Key:
[1] = biological target: T1, ligand binding domain of ERR-α (aa 183-424) (Homo sapiens, UniProt P11474); test: ThermoFluor thermal-shift binding affinity screen against ERR-α ligand binding domain; conditions: 100 μM test compound, 0.1 mg/mL ERR-α, pH 7.6, Kd estimated from melting temperature shift at reference temperature, read-out: TF Kd
T1 construct: His tag (N); thrombin cleavage site (N); made in house; host or cells: E. coli BL21(DE3+)
T1 sequence (P11474 183-423 limits assumed): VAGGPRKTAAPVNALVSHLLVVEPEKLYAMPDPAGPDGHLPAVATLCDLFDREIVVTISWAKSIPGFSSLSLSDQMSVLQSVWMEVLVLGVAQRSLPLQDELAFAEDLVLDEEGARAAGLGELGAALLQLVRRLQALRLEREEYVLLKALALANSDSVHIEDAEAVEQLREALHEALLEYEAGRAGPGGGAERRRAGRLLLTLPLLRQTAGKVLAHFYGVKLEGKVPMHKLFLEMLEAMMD
Description: The ligand binding domain of ERR-α (aa 183-424) was subcloned in frame with the N-terminal His tag and the cleavable thrombin site in pET28. The protein was expressed in BL21(DE3^+) following induction with 100 μM IPTG at 16° C. Cells were harvested after 16 hours (h) of induction and lysed in 20 mM Tris pH 7.5, 500 mM NaCl, 5 mM imidazole, 5% glycerol, protease inhibitor cocktail (-EDTA) and 2 mM β-ME. Insoluble material was removed by centrifugation at 40,000×g for 1 hr. Clarified homogenate was applied on a Ni-NTA column and after applying an imidazole gradient the protein was eluted. The protein was further purified on size exclusion chromatography to an apparent homogeneity of 95% as judged by SDS-PAGE chromatography.
Binding affinities of compounds were determined by screening against the ligand binding domain of ERR-α using ThermoFluor® technology (U.S. Pat. No. 6,020,141 and U.S. Pat. No. 6,036,920, and Journal of Biomolecular Screening 6 (6), […], pgs 429-440). Assay plates were prepared by dispensing 2 μL of a protein-dye solution and 2 μL of the test compound in a 384-well plate. The conditions used in the screen were: 0.1 mg/mL ERR-α, 25 mM Na-phosphate buffer at pH 7.6, 200 mM NaCl, 10% glycerol, 16 μM ANS, 2% DMSO and the final concentration of test compound was 100 μM. Finally 1 μL of mineral oil was dispensed on top to prevent evaporation during the high throughput screen (HTS). ThermoFluor® is an HTS assay that measures protein unfolding based on fluorescence detection of the denatured form of the protein. The reporter for the protein unfolding event is the environmentally sensitive dye ANS that is incorporated in the screening buffer. During a typical experiment the 384-well plate is heated at a ramping rate of 1° C./min and the thermal unfolding of the protein is monitored at 1° C. intervals by measuring fluorescence changes detected through a CCD camera. Captured images are integrated and a melting curve is generated that relates fluorescence to fraction of unfolded protein as a function of temperature. For the ERR-α screen, data were collected from 30 to 80° C. at 1° C. intervals and the protein melted under the screening conditions with a characteristic melting temperature, Tm, of 52.1° C. Hits were identified from the screen by measuring an increase in the melting temperature of the protein.
In order to estimate binding affinities, it was taken into account that the oligomeric state of ERR-α, which is a dimer (N2), and that of a single ligand (Lf) can interact per monomer subunit with equal affinity. The melting curve for such a system is described by the following three equilibria: [formula] The first equilibrium describes the denaturation of ERR-α dimers; the second equilibrium describes the dissociation of the first ligand from the single ligand occupied ERR-α dimers (N2L); and the third equilibrium describes the dissociation of the second ligand from the fully occupied ERR-α dimers (N2L2).
Following the derivations of Brandts and Lin (Biochemistry, 29, 6967, 1990) the dissociation constants for the ligands (Kd1^t^m) can be determined at T=Tm for any ligand concentration Lt by solving numerically the conservation of mass equations: [formula] and Ku is in the unfolding equilibrium constant for ERR-α dimers that is calculated from the melting curve of the protein in the absence of ligand as described by Pantoliano et al. (J. Biomolecular Screening, 6, 429, 2001) and Bowie & Sauer (Biochemistry, 28, 7139, 1989).
To compare dissociation constants at a common reference temperature, Tref, the following equation was used: [formula] where • Kd^ref=is the dissociation constant of the ligand at a reference temperature Tref • ΔHb^ref=is the binding enthalpy of the ligand to the protein at a reference temperature Tref. […]

ERR-α = biological target: T2, ERR-α (Homo sapiens, UniProt P11474); test: 2-Hybrid cell based luciferase reporter assay (pBIND-Gal4-ERR-α / pACT-SRC2) in HEK293E cells; conditions: 24 hours compound treatment, firefly luciferase normalized to Renilla, average from three independent experiments
T2 construct: expressed in transfected cells; host or cells: HEK293E
T2 sequence (P11474 1-423): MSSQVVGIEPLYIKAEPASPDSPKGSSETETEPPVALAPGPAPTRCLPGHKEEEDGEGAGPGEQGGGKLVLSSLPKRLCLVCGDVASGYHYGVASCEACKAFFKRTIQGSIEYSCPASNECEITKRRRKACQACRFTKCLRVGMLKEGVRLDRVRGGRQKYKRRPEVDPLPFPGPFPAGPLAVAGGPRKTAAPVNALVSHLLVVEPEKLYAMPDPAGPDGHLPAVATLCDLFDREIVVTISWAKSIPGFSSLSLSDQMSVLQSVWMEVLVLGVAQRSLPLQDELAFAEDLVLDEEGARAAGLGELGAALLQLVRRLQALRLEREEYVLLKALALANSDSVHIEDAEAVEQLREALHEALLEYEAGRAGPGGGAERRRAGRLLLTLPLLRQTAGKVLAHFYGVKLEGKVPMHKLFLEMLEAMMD
Description: A cell based reporter assay was also used to determine the functional response of the ERR-α hits. Transfections were performed in HEK293E cells that were maintained in DMEM supplemented in glutamine and 10% FBS. Co-transfections of 4 μg of a luciferase reporter plasmid and 4 μg of each pBIND-Gal4-ERR-α and pACT-SRC2 plasmids per T-75 flask were done using Lipofectamine as per manufacturers instructions. Twenty-four hours post-transfection, the cells were seeded in 96-well plates at density of 50,000 cells per well in assay media (DMEM phenol free, 5% charcoal stripped FBS). The cells were allowed to adhere to the bottom of the wells (approximately 5 hours post-seeding) and the compounds were dosed and the final concentration of DMSO was kept below 0.3%. After 24 hours of compound treatment cells were lysed and treated with the Promega Dual-Glo system. Firefly Luciferase activity was read using a luminescence plate reader, and data were normalized against Renilla luciferase activity. Data were fitted using subroutines available from GraphPad. The reported IC50 values shown in the table below are the average from three independent experiments for the compounds tested.

Kd [1] [nM] | IC50 (ERR-α) [nM] | SMILES
114 | 1500 | COC(=O)c1ccc(Oc2ccc(/C=C3\SC(=O)NC3=O)cc2OC)cc1C(F)(F)F [Example 15, 4-[4-(2,4-Dioxo-thiazolidin-5-ylidenemethyl)-2-methoxy-phenoxy]-2-trifluoromethyl-benzoic acid methyl ester]
359 | 500 | COc1cc(/C=C2\SC(N)=NC2=O)ccc1Oc1ccc(C(F)(F)F)cc1[N+](=O)[O-] [Example 7, 2-Amino-5-[3-methoxy-4-(2-nitro-4-trifluoromethyl-phenoxy)-benzylidene]-thiazol-4-one]
463 | 50 | COc1cc(/C=C2\SC(=O)NC2=O)ccc1Oc1ccc(C#N)c(C(F)(F)F)c1 [Example 12, 4-[4-(2,4-Dioxo-thiazolidin-5-ylidenemethyl)-2-methoxy-phenoxy]-2-trifluoromethyl-benzonitrile]
26000 | 26000 | N#C/C(=C\c1ccc(Oc2ccccc2)cc1)c1nn(-c2ccccc2)c(N)c1C#N [Example 5, 5-Amino-3-[1-cyano-2-(4-phenoxy-phenyl)-vinyl]-1-phenyl-1H-pyrazole-4-carbonitrile]
1710 | 1710 | COc1cc(/C=C(\C#N)c2nn(-c3ccccc3)c(N)c2C#N)ccc1Oc1ccc([N+](=O)[O-])c(C(F)(F)F)c1 [Example 3, 5-Amino-3-{1-cyano-2-[3-methoxy-4-(4-nitro-3-trifluoromethyl-phenoxy)-phenyl]-vinyl}-1-phenyl-1H-pyrazole-4-carbonitrile]
7780 | 7780 | N#C/C(=C\c1ccc(Oc2ccc(C(F)(F)F)cc2[N+](=O)[O-])cc1)c1nn(-c2ccccc2)c(N)c1C#N [Example 2, 5-Amino-3-{1-cyano-2-[4-(2-nitro-4-trifluoromethyl-phenoxy)-phenyl]-vinyl}-1-phenyl-1H-pyrazole-4-carbonitrile]
6070 | 6070 | COc1cc(/C=C(\C#N)c2nn(-c3ccccc3)c(N)c2C#N)ccc1Oc1ccc(C(F)(F)F)cc1[N+](=O)[O-] [Example 1, 5-Amino-3-{1-cyano-2-[3-methoxy-4-(2-nitro-4-trifluoromethyl-phenoxy)-phenyl]vinyl}-1-phenyl-1H-pyrazole-4-carbonitrile]
1430 | 1430 | COc1cc(/C=C(\C#N)c2nn(-c3ccccc3)c(N)c2C#N)ccc1Oc1ccc(C#N)c(C(F)(F)F)c1 [Example 4, 5-Amino-3-{1-cyano-2-[4-(4-cyano-3-trifluoromethyl-phenoxy)-3-methoxy-phenyl]-vinyl}-1-phenyl-1H-pyrazole-4-carbonitrile]
529 | 1000 | COc1cc(/C=C2\SC(=O)NC2=O)ccc1Oc1ccc([N+](=O)[O-])c(C(F)(F)F)c1 [Example 11, 5-[3-Methoxy-4-(4-nitro-3-trifluoromethyl-phenoxy)-benzylidene]-thiazolidine-2,4-dione]
473 | 140 | COc1cc(/C=C2\SC(N)=NC2=O)ccc1Oc1ccc(C#N)c(C(F)(F)F)c1 [Example 8, 4-[4-(2-Amino-4-oxo-4H-thiazol-5-ylidenemethyl)-2-methoxy-phenoxy]-2-trifluoromethyl-benzonitrile]
